Experimental data: patent US6448282B1, “1H-4(5)-substituted imidazole derivatives” (Gliatech, Inc., priority 1995, dated 2002)

Tested on: histamine synthesis and release
Test: not given
Conditions: in vivo studies; cited from earlier work

Compound | synthesis and release of histamine
S=C(NC1CCCCC1)N1CCC(c2cnc[nH]2)CC1 [thioperamide] | increase in synthesis and release of histamine

Molecular target: T1, Histamine H3 receptor (Rattus norvegicus, UniProt Q9QYN8)
T1 construct: from tissue; host or cells: rat cerebral cortex membranes
T1 sequence (Q9QYN8 whole entry): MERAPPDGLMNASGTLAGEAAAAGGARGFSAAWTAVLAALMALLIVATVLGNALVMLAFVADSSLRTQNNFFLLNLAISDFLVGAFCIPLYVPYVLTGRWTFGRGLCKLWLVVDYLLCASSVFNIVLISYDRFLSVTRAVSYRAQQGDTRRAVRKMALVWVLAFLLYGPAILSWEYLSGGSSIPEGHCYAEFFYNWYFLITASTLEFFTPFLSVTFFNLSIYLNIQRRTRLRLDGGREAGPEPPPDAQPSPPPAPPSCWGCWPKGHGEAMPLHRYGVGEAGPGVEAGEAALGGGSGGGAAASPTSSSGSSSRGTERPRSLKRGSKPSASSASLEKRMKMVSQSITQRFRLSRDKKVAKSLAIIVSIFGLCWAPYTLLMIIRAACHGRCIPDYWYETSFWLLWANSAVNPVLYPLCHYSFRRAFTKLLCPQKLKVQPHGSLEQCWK
Test: In vitro histamine H3 receptor binding analysis, [3H]-Nα-methylhistamine, rat cortical membranes
Conditions: Ki=IC50/(1+([Ligand]/[Kd])
Procedure: Briefly, animals were sacrificed by decapitation and the cerebral cortex was rapidly removed. Rat cortices were mechanically homogenized with an Omni 1000 motor driven homogenizer in 10 volumes (wt/vol) of Krebs-Ringers Hepes buffer (pH 7.4) containing the following protease inhibitors; EDTA (10 mM), PMSF (0.1 mM), chymostatin (0.2 mg/50 ml) and leupeptin (0.2 mg/50 ml). The homogenate was centrifuged in a Sorvall at ˜40,000×g for 30 min. The pellet was resuspended by mechanical homogenization in 25 ml water and lysed on ice for 30 min. The homogenate was recentrifuged and the membrane lysis was repeated. The membranes were recentrifuged and the final pellet was resuspended in 14 volumes of water to give approximately 200 μg protein/100 μl final concentration. The suspension was stored at −80° C. prior to use. Protein concentrations were determined by Coomassie Plus Protein Assay (Pierce, Rockford, Ill.).
Nonspecific binding (NSB) was accounted for by the inclusion of thioperamide (10 μM). The samples were incubated for 40 min at 25° C. Samples were filtered through glass fiber strips, pre-washed with 0.3% polyethyleneimine, using a Brandell cell harvester. […] Filters were transferred to polyethylene minivials and counted in 3.5 ml of scintillation fluid (Ecolume, ICN Biomedicals, Inc.). […] Saturation and competition experiments were analyzed with the ReceptorFit saturation and competition curve fitting programs (Lundon Software, Inc., Cleveland, Ohio).

Compound | Ki [nM]
N[C@@H](Cc1ccccc1)C(=O)NCCc1c[nH]cn1 [Example 1, 2-(S)-Amino-N-(2-imidazol-4-yletyl)-3-phenyl propanamide] | 104 ± 14
O=C(NCCc1c[nH]cn1)[C@@H]1CCCN1 [Example 2, N-(2-Imidazol-4-ylethyl)-(S)-pyrrolidin-2-ylformamide] | 202 ± 2
O=C(NCCc1c[nH]cn1)[C@@H]1Cc2ccccc2CN1 [Example 3] | 82.7 ± 7.7
N[C@H](Cc1ccccc1)C(=O)NCCc1c[nH]cn1 [Example 4, 2-(R)-Amino-N-(2-imidazol-4-yletyl)-3-phenyl propanamide] | > 10000
N[C@@H](Cc1ccc(F)cc1)C(=O)NCCc1c[nH]cn1 [Example 5, 2-(S)-Amino-3-(4-flurophenyl)-N-(2-imidazoyl-4-ylethyl)propanamide] | 84.5 ± 12.8
CN[C@@H](Cc1ccccc1)C(=O)NCCc1c[nH]cn1 [Example 7] | 1650 ± 310
N[C@@H](Cc1cccc2ccccc12)C(=O)NCCc1c[nH]cn1 [Example 8, 2-(S)-Amino-N-(2-imidazol-4-ylethyl)-3-naphthylpropanamide] | 299 ± 82
N[C@H](C(=O)NCCc1c[nH]cn1)c1ccccc1 [Example 9, 2-(S)-Amino-N-(2-imidazol-4-ylethyl)-2-phenylethanamide] | 630 ± 51
CC(=O)N[C@@H](CC1CCCCC1)C(=O)NCCc1c[nH]cn1 [Example 10, 2-(S)-(Acetylamino)-3-cycohexyl-N-(2-imidazol-4-ylethyl)propanamide] | 5490 ± 255
N[C@@H](CCc1ccccc1)C(=O)NCCc1c[nH]cn1 [Example 11, 2-(S)-Amino-N-(2-imidazol-4-ylethyl)-4-phenylbutanamide] | 10.9 ± 1.7
N[C@@H](Cc1ccc(OCc2ccccc2)cc1)C(=O)NCCc1c[nH]cn1 [Example 13, 2-(S)-Amino-N-(2-imidazol-4-ylethyl)-3-(4-(phenylmethoxy)phenyl) propanamide] | 199 ± 24
N[C@@H](COCc1ccccc1)C(=O)NCCc1c[nH]cn1 [Example 14, 2-(S)-Amino-N-(2-imidazol-4-ylethyl)-3-(phenylmethoxy)propanamide] | 122 ± 11
N[C@@H](CC(=O)OCc1ccccc1)C(=O)NCCc1c[nH]cn1 [Example 15, Phenylmethyl-3-(S)-amino-3-(N-(2-imidazol-4-ylethyl)carbamoyl)propanoate] | 81.6 ± 13.6
N[C@@H](Cc1c[nH]cn1)C(=O)NCCc1c[nH]cn1 [Example 16, 2-(S)-Amino-3-imidazol-4-yl-N-(2-imidazol-4-ylethyl)propanamide] | 3260 ± 457
CC(C)C[C@H](N)C(=O)NCCc1c[nH]cn1 [Example 20, 2-(S)-Amino-N-(2-imidazol-4-ylethyl)-4-methylpentanamide] | 122 ± 37
C[C@H](Cc1c[nH]cn1)NC(=O)[C@@H]1CC2CCCCC2N1 (stereo partly drawn) [Example 21] | 231 ± 15
c1nc(CCNC[C@@H]2CC3CCCCC3N2)c[nH]1 (stereo partly drawn) [Example 22, ((7-Azabicyclo[4.3.0]non-(S)-8-yl)methyl)(2-imidazol-4-ylethyl)amine] | 66 ± 4
C(#CCCN1CCOCC1)CCc1c[nH]cn1 [Example 35, 4-(6-Imidazol-4-ylhex-3-ynyl)morpholine] | 1210 ± 80
C(#Cc1c[nH]cn1)CCCC1CCCCC1 [Example 36, 4-(5-Cyclohexylpent-1-ynyl)imidazole] | 863 ± 139
C(#Cc1c[nH]cn1)CCCc1ccccc1 [Example 38, 4-(5-Phenylpent-1-ynyl)imidazole] | 591 ± 36
C(#CCCc1c[nH]cn1)CCCc1ccccc1 [Example 39, 4-(7-Phenylhept-3-ynyl)imidazole] | 6.7 ± 0.6
C(=C/CCc1c[nH]cn1)/CCc1ccccc1 [Example 42, 4-(6-Phenylhex-cis-3-enyl)imidazole] | 5.5 ± 0.02
C#Cc1c[nH]cn1 [Example 46, 4-Ethynylimidazole] | > 10000
BrC(Br)=Cc1c[nH]cn1 [Example 48, 4-(2,2-Dibromovinyl)imidazole] | > 10000

Further lines, results first:

Ki [nM] | Compound
30.8 ± 2.1 | N[C@@H](CC1CCCCC1)C(=O)NCCc1cnc[nH]1 [Example 6, 2-(S)-Amino-3-cyclohexyl-N-(2-imidazol-4-ylethyl)propanamide]
11.1 ± 0.4 | O=C(NCCc1c[nH]cn1)[C@@H]1CC2CCCCC2N1 (stereo partly drawn) [Example 12, (7-Azabicyclo[4.3.0]non-(S)-8-yl)-N-(2-imidazol-4-ylethyl)formamide]
14 ± 3 | Cc1c(C)c(S(=O)(=O)NC(=N)NCCC[C@H](N)C(=O)NCCc2c[nH]cn2)c(C)c2c1OC(C)(C)CC2 [Example 17, 2-(S)-Amino-N-(2-imidazol-4ylethyl)-5-((imino(((2,2,5,7,8-pentamethylchroman-6-yl)sulfonyl)amino)methyl)amino)pentanamide]
45 ± 11 | CN(CCc1c[nH]cn1)C(=O)[C@@H]1CC2CCCCC2N1 (stereo partly drawn) [Example 18, (7-Azabicyclo[4.3.0]non-(S)-8-yl)-N-(2-imidazol-4-ylethyl)-N-methylformamide]
63 ± 1 | N=C(N)NCCC[C@H](N)C(=O)NCCc1c[nH]cn1 [Example 19, 5-(Amidinoamino)-2-(S)-amino-N-(2-imidazol-4-ylethyl)pentanamide]
2.9 ± 0.2 | C(#CCCC1CCCCC1)CCc1c[nH]cn1 [Example 23, 4-(6-Cyclohexylhex-3-ynyl)imidazole]
4.2 ± 0.6 | C(=C/CCC1CCCCC1)/CCc1c[nH]cn1 [Example 24, 4-(6-Cyclohexyl-cis-3-enyl)imidazole]
16 ± 2 | C(=C\CCC1CCCCC1)/CCc1c[nH]cn1 [Example 25, 4-(6-Cyclohexylhex-trans-3-enyl)imidazole]
1 ± 0.1 | N[C@H](/C=C/CCc1c[nH]cn1)CC1CCCCC1 [Example 26, 1-Cyclohexyl-6-imidazol-4-ylhex-trans-3-en-2-(S)-ylamine]
79 ± 22 | CCC#CCCc1c[nH]cn1 [Example 27, 4-Hex-3-ynylimidazole]
27 ± 7.5 | CCCC#CCCc1c[nH]cn1 [Example 28, 4-Heptyl-3-ynylimidazole]
3.7 ± 1.1 | CC(C)CCC#CCCc1c[nH]cn1 [Example 29, 4-(7-Methyloct-3-ynyl)imidazole]
0.95 ± 0.3 | C(#CCCC1CCCC1)CCc1c[nH]cn1 [Example 30, 4-(6-Cyclopentylhex-3-ynyl)imidazole]
0.8 ± 0.4 | CC(C)(C)CCC#CCCc1c[nH]cn1 [Example 32, 4-(7,7-Dimethyloct-3-ynyl)imidazole]
5.6 ± 1 | CCCCCC#CCCc1c[nH]cn1 [Example 33, 4-Non-3-ynylimidazole]
2.8 ± 0.7 | CCCCCCCC#CCCc1c[nH]cn1 [Example 34, 4-Undec-3-ynylimidazole]
3.4 ± 1.7 | C(#CCCc1c[nH]cn1)CCCC1CCCCC1 [Example 37, 4-(7-Cyclohexylhept-3-ynyl)imidazole]
3 ± 0.2 | CCCCC#CCCc1c[nH]cn1 [Example 40, 4-Oct-3-ynylimidazole]
74.5 | c1ncc(CCCCCCC2CCCCC2)[nH]1 [Example 41, 4-(6-Cyclohexylhexyl)imidazole]
66 ± 5.5 | C#CCCc1c[nH]cn1 [Example 45, 4-But-3-ynylimidazole]
26 ± 9.6 | BrC(Br)=CCCc1c[nH]cn1 [Example 47, 4-(4,4-Dibromobut-3-enyl)imidazole]

Tested on: rats
Test: not given
Conditions: cited from earlier work

Compound | wakefulness, slow wave and REM sleep
S=C(NC1CCCCC1)N1CCC(c2cnc[nH]2)CC1 [thioperamide] | increase wakefulness and decrease slow wave and REM sleep

Tested on: cat
Test: not given
Conditions: cited from earlier work

Compound | wakefulness
S=C(NC1CCCCC1)N1CCC(c2cnc[nH]2)CC1 [thioperamide] | enhanced wakefulness in a dose-dependent fashion

Same assay, conditions: oral administration; cited from earlier work

Compound | deep slow wave sleep
C[C@@H](N)Cc1cnc[nH]1 [RAMHA] | significant increase

Tested on: electrically-induced convulsions
Test: not given
Conditions: after electrically-induced convulsions; cited from earlier work

Compound | durations of every convulsive phase
S=C(NC1CCCCC1)N1CCC(c2cnc[nH]2)CC1 [thioperamide] | significantly and dose-dependently decrease

Same assay, conditions: in vivo; cited from earlier work

Compound | electroconvulsive threshold
S=C(NC1CCCCC1)N1CCC(c2cnc[nH]2)CC1 [thioperamide] | increase the electroconvulsive threshold
